From patent US20250051321A1, “TRICYCLIC DERIVATIVE AND PREPARATION METHOD THEREFOR AND APPLICATION THEREOF” (SHANGHAI JEMINCARE PHARMACEUTICAL CO., LTD., priority 2021, published 2025)
Like-named read-outs stand apart in the source and are kept apart here.

What was measured:
ATX = ATX (Homo sapiens (Human), UniProt Q13822); assay: ATX enzyme inhibition assay (Amplex UltraRed/choline oxidase/HRP, 16:0 Lyso PC substrate); type: biochemical
In short: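 ATX (2× stock […]) preincubated with compound for 10 min at room temperature in assay buffer at pH 8.5 or 7.5. Reaction started with 16:0 Lyso PC, choline oxidase, HRP and Amplex UltraRed (2.5× working stock); fluorescence read kinetically (ex 550/em 590 nm) for 60 min.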

[1] = tested on: plasma LPA 18:1 and LPA 18:2; assay: Human plasma ex vivo assay (LPA 18:1 / 18:2 by LC-MS/MS); type: biochemical; details: 37° C., 2 hours
In short: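 Human plasma incubated 2 h at 37° C with compound (8 points, 1:3 dilution, top 10 μM, 0.1% DMSO), then quenched with 0.1% FA containing LPA 17:0 internal standard.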

[2] = assay buffer pH 7.5, read-out: IC50 (nM) pH 7.5
[3] = assay buffer pH 8.5, read-out: IC50 (nM) pH 8.5
[4] = LPA 18:1, read-out: Human plasma ex vivo assay IC50 (18:1 LPA)
[5] = LPA 18:2, read-out: Human plasma ex vivo assay IC50 (18:2 LPA)

| SMILES | IC50 (ATX; [2]) [nM] | IC50 (ATX; [3]) [nM] | IC50 [1, 4] [nM] | IC50 [1, 5] [nM] |
| --- | --- | --- | --- | --- |
| CN(c1nc(-c2ccc(F)cc2)c(C#N)s1)c1c2c(nc3ccc(N4CCN(CC(=O)N5CC(O)C5)CC4)nc13)CCC2 [Example A10] | 559 | 60.7 | 192 | 157 |
| CN(c1nc(-c2ccc(F)cc2)c(C#N)s1)c1c2c(nc3ccc(N4CCN(CC(=O)N5CC(O)C5)CC4)nc13)CCO2 [Example A12] | 219 | 22.3 | 64.5 | 91.6 |
| CN(c1nc(-c2ccc(F)cc2)c(C#N)s1)c1c2c(nc3cnc(N4CCN(CC(=O)N5CC(O)C5)CC4)cc13)CCC2 [Example A20] | 645 | 84 | 170 | 203 |
| CN(c1nc(-c2ccc(F)cc2)c(C#N)s1)c1c2c(nc3ccc(N4CCN(S(C)(=O)=O)C[C@@H]4CO)cc13)CCC2 [Example B1] | – | 112 | 176 | 169 |
| CN(c1nc(-c2ccc(F)cc2)c(C#N)s1)c1c2c(nc3ccc(N4CCN(S(C)(=O)=O)C[C@H]4CO)cc13)CCC2 [Example B2] | 141 | 58.8 | 177 | 201 |
| CN(c1nc(-c2ccc(F)cc2)c(C#N)s1)c1c2c(nc3c(F)cc(N4CCN(S(C)(=O)=O)[C@H](CO)C4)cc13)CCC2 [Example B3] | 171 | 41.2 | 170 | 165 |
| CN(c1nc(-c2ccc(F)cc2)c(C#N)s1)c1c2c(nc3c(F)cc(N4CCN(S(C)(=O)=O)[C@@H](CO)C4)cc13)CCC2 [Example B4] | 611 | 66.5 | 219 | 253 |
| CN(c1nc(-c2ccc(F)cc2)c(C#N)s1)c1c2c(nc3ncc(N4CC5(CN(C(=O)[C@H]6CCOC6)C5)C4)cc13)CCC2 [Example C3] | 32 | 22.7 | 141 | 135 |
| CN(c1nc(-c2ccc(F)cc2)c(C#N)s1)c1c2c(nc3ncc(N4CC5(CN(C(=O)[C@@H]6CCOC6)C5)C4)cc13)CCC2 [Example C4] | 38.6 | 27.4 | 114 | 89.2 |
| CN(c1nc(-c2ccc(F)cc2)c(C#N)s1)c1c2c(nc3c(F)cc(N4CCN(C(=O)[C@@H]5CCOC5)CC4)cc13)CCC2 [Example C6] | 1230 | 196 | 232 | 264 |
| CN(c1nc(-c2ccc(F)cc2)c(C#N)s1)c1c2c(nc3c(F)cc(N4CCN(C(=O)[C@H]5CCOC5)CC4)cc13)CCC2 [Example C7] | 1140 | 193 | 354 | 401 |
| CN(c1nc(-c2ccc(F)cc2)c(C#N)s1)c1c2c(nc3c(F)cc(N4CC5(CCN(C(=O)[C@@H]6CCOC6)CC5)C4)cc13)CCC2 [Example C9] | 78.5 | 23 | 216 | 234 |
| CN(c1nc(-c2ccc(F)cc2)c(C#N)s1)c1c2c(nc3ccc(N4CC5(CN(C(=O)[C@H]6CCOC6)C5)C4)nc13)CCO2 [Example C10] | 33.6 | 18.6 | 147 | 134 |
| CN(c1nc(-c2ccc(F)cc2)c(C#N)s1)c1c2c(nc3c(F)cc(N4CC5(CN(C(=O)[C@H]6CCOC6)C5)C4)cc13)CCO2 [Example C12] | 82.2 | 52.6 | 292 | 347 |
| CN(c1nc(-c2ccc(F)cc2)c(C#N)s1)c1c2c(nc3c(F)cc(N4CCC5(CCN(C(=O)[C@@H]6CCOC6)C5)C4)cc13)CCC2 (stereo partly drawn) [Example C14] | 334 | 83.1 | 310 | 379 |
| CN(c1nc(-c2ccc(F)cc2)c(C#N)s1)c1c2c(nc3c(F)cc(N4CCC5(CCN(C(=O)[C@@H]6CCOC6)CC5)C4)cc13)CCC2 [Example C15] | 232 | 60.6 | 285 | 326 |
| CN(c1nc(-c2ccc(F)cc2)c(C#N)s1)c1c2c(nc3c(F)cc(N4CC5(CN(C(=O)C6(O)CCOCC6)C5)C4)cc13)COC2 [Example C20] | – | 24.2 | 677 | 362 |
| C[C@H]1CN(CC(=O)N2CC(O)C2)CCN1c1cc(F)c2nc3c(c(N(C)c4nc(-c5ccc(F)cc5)c(C#N)s4)c2c1)CCC3O (stereo partly drawn) [Example E7] | – | 15.4 | 149 | 327 |
| C[C@H]1CN(c2cc(F)c3nc4c(c(N(C)c5nc(-c6ccc(F)cc6)c(C#N)s5)c3c2)CCC4O)CCN1CC(=O)N1CC(O)C1 (stereo partly drawn) [Example E8] | – | 15.4 | 175 | 160 |
| C[C@@H]1CN(c2cc(F)c3nc4c(c(N(C)c5nc(-c6ccc(F)cc6)c(C#N)s5)c3c2)CCC4O)CCN1CC(=O)N1CC(O)C1 (stereo partly drawn) [Example E9] | – | 19.6 | 160 | 152 |
| CN(c1nc(-c2ccc(F)cc2)c(C#N)s1)c1c2c(nc3c(F)cc(N4CCN(CC(=O)N5CC(C)(O)C5)CC4)cc13)C(O)CC2 (stereo not drawn) [Example E10] | – | 16.2 | 139 | 270 |

The next lines start with the values.

| IC50 (ATX; [2]) [nM] | IC50 (ATX; [3]) [nM] | IC50 [1, 4] [nM] | IC50 [1, 5] [nM] | SMILES |
| --- | --- | --- | --- | --- |
| 883 | 64 | 248 | 271 | CN(c1nc(-c2ccc(F)cc2)c(C#N)s1)c1c2c(nc3cc(F)c(N4CCN(CC(=O)N5CC(O)C5)CC4)cc13)CCC2 [Example A8] |
| 699 | 86.8 | 351 | 323 | CN(c1nc(-c2ccc(F)cc2)c(C#N)s1)c1c2c(nc3c(F)cc(N4CC5(CN(CC(=O)N6CC(O)C6)C5)C4)cc13)CCC2 [Example A9] |
| 1180 | 145 | 299 | 359 | CN(c1nc(-c2ccc(F)cc2)c(C#N)s1)c1c2c(nc3c(F)cc(N4CC5(CCN(CC(=O)N6CC(O)C6)CC5)C4)cc13)CCC2 [Example A11] |
| – | 228 | 304 | 338 | Cc1cc(N2CCN(CC(=O)N3CC(O)C3)CC2)cc2c(N(C)c3nc(-c4ccc(F)cc4)c(C#N)s3)c3c(nc12)CCC3 [Example A14] |
| 282 | 75.7 | 286 | 341 | CN(c1nc(-c2ccc(F)cc2)c(C#N)s1)c1c2c(nc3c(F)cc(N4CCN(CC(=O)N5CC(F)C5)CC4)cc13)CCC2 [Example A16] |
| – | 48.7 | 164 | 172 | CN(c1nc(-c2ccc(F)cc2)c(C#N)s1)c1c2c(nc3c(F)cc(N4CC5(CN(CC(=O)N6CC(O)C6)C5)C4)cc13)CC2 [Example A17] |
| 228 | 61.1 | 162 | 192 | CN(c1nc(-c2ccc(F)cc2)c(C#N)s1)c1c2c(nc3c(F)cc(N4CC5(CN(CC(=O)N6CC(CO)C6)C5)C4)cc13)CC2 [Example A18] |
| 413 | 52.7 | 118 | 132 | CN(c1nc(-c2ccc(F)cc2)c(C#N)s1)c1c2c(nc3c(F)cc(N4CCN(CC(=O)N5CC(O)C5)CC4)cc13)COC2 [Example A19] |
| 125 | 23.7 | 70.2 | 55.9 | CN(c1nc(-c2ccc(F)cc2)c(C#N)s1)c1c2c(nc3ncc(N4CCN(CC(=O)N5CC(O)C5)CC4)cc13)CCC2 [Example A21] |
| – | 181 | 466 | 486 | CN(c1nc(-c2ccc(F)cc2)c(C#N)s1)c1c2c(nc3c(F)cc(N4CC5(CN(CC(=O)N6CC(O)C6)C5)C4)cc13)COC2 [Example A24] |
| 541 | 75 | 251 | 269 | CN(c1nc(-c2ccc(F)cc2)c(C#N)s1)c1c2c(nc3c(F)cc(N4CC5(CN(CC(=O)N6CC(CO)C6)C5)C4)cc13)CCC2 [Example A25] |
| 41.6 | 23.8 | 402 | 365 | CN(c1nc(-c2ccc(F)cc2)c(C#N)s1)c1c2c(nc3c(F)cc(N4CC5(CN(C(=O)[C@@H]6CCOC6)C5)C4)cc13)CCC2 [Example C2] |
